Assay results reported in patent US20240218022A1, “ANTI-VISTA MACROCYCLIC PEPTIDES AND COMPOSITIONS” (BRISTOL-MYERS SQUIBB COMPANY, priority 2022, published 2024).
Positions of bridges follow the written chain, without caps; N, C: chain ends. Non-standard residues stand in square brackets, D forms with d. Residues, ends and D or L forms follow the SMILES beside them. Ahp(2) = CCCCC[C@H](N)C(=O)O; NMeNle = CCCC[C@H](NC)C(=O)O; Tle = CC(C)(C)[C@H](N)C(=O)O; NHexGly = CCCCCCNCC(=O)O; Nle = CCCC[C@H](N)C(=O)O; Orn = NCCC[C@H](N)C(=O)O

Molecular target: T1, mouse VISTA (mVISTA) (Mus musculus, UniProt Q9D659)
T1 construct: expressed in transfected cells; host or cells: Human embryonic kidney 293T cells
T1 sequence (Q9D659 33-308): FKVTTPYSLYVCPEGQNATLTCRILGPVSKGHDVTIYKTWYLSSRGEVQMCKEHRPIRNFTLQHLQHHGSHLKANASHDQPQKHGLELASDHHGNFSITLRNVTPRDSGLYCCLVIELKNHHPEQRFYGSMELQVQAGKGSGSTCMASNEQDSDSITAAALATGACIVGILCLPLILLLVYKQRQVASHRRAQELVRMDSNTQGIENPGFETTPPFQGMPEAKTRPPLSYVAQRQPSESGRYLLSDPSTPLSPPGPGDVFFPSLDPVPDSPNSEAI
Assay: Cell-Based Binding High-Content Assay For mVISTA (HC CBA mVISTA)
Conditions: read-out: HC CBA mVISTA IC50
Outline: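 293T cells expressing mouse VISTA, with compounds added either after seeding ("no wash") or before seeding and then washed out after 1 h. Biotinylated peptide 2 nM for 30 min at room temperature, then detection with Alexa 647–streptavidin. After fixation with Hoechst stain, plates were high-content imaged; IC50 from four-parameter logistic fit.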

Row | Structure (SMILES) | IC50
1 | CCCCCCN1CC(=O)N[C@@H](Cc2ccc(O)cc2)C(=O)N[C@@H](CCCC)C(=O)N[C@@H](CC(=O)O)C(=O)N[C@@H](CCCNC(=N)N)C(=O)N(C)[C@@H](CCCC)C(=O)N[C@@H](CCCCC)C(=O)N2CCC[C@H]2C(=O)N[C@@H](C(C)(C)C)C(=O)N[C@@H](CC(=O)O)C(=O)N[C@H](C(=O)NCC(N)=O)CSCC(=O)N[C@@H](Cc2ccccc2)C(=O)N[C@@H](Cc2c[nH]c3ccccc23)C(=O)N[C@@H](CC(=O)O)C1=O [Example 1392] ({CH2CO}-FWD[NHexGly]Y[Nle]DR[NMeNle][Ahp(2)]P[Tle]DCG-NH2; thioether N-14) | 38.3 nM
2 | CCCCCCN1CC(=O)N[C@@H](Cc2ccc(O)cc2)C(=O)N[C@@H](CCCC)C(=O)N[C@@H](CC(=O)O)C(=O)N[C@@H](CCCN)C(=O)N(C)[C@@H](CCCC)C(=O)N[C@@H](CCCCC)C(=O)N2CCC[C@H]2C(=O)N[C@@H](C(C)(C)C)C(=O)N[C@@H](CC(=O)O)C(=O)N[C@H](C(=O)NCC(N)=O)CSCC(=O)N[C@@H](Cc2ccccc2)C(=O)N[C@@H](Cc2c[nH]c3ccccc23)C(=O)N[C@@H](CC(=O)O)C1=O [Example 1393] ({CH2CO}-FWD[NHexGly]Y[Nle]D[Orn][NMeNle][Ahp(2)]P[Tle]DCG-NH2; thioether N-14) | 17.2 nM
3 | CCCCCCN1CC(=O)N[C@@H](Cc2ccc(O)cc2)C(=O)N[C@@H](CCCC)C(=O)N[C@@H](CC(N)=O)C(=O)N[C@@H](CCCN)C(=O)N(C)[C@@H](CCCC)C(=O)N[C@@H](CCCCC)C(=O)N2CCC[C@H]2C(=O)N[C@@H](C(C)(C)C)C(=O)N[C@@H](CC(=O)O)C(=O)N[C@H](C(=O)NCC(N)=O)CSCC(=O)N[C@@H](Cc2ccccc2)C(=O)N[C@@H](Cc2c[nH]c3ccccc23)C(=O)N[C@@H](CC(=O)O)C1=O [Example 1394] ({CH2CO}-FWD[NHexGly]Y[Nle]N[Orn][NMeNle][Ahp(2)]P[Tle]DCG-NH2; thioether N-14) | 34.8 nM
4 | CCCCCCN1CC(=O)N[C@@H](Cc2ccc(O)cc2)C(=O)N[C@@H](CCCC)C(=O)N[C@@H](CC(=O)O)C(=O)N[C@@H](CCCNC(=N)N)C(=O)N(C)[C@@H](CCCC)C(=O)N[C@@H](CCCCC)C(=O)N2CCC[C@H]2C(=O)N[C@@H](C(C)(C)C)C(=O)N[C@@H](CO)C(=O)N[C@H](C(=O)NCC(N)=O)CSCC(=O)N[C@@H](Cc2ccccc2)C(=O)N[C@@H](Cc2c[nH]c3ccccc23)C(=O)N[C@@H](CC(=O)O)C1=O [Example 1395] ({CH2CO}-FWD[NHexGly]Y[Nle]DR[NMeNle][Ahp(2)]P[Tle]SCG-NH2; thioether N-14) | 48.6 nM
5 | CCCCCCN1CC(=O)N[C@@H](Cc2ccc(O)cc2)C(=O)N[C@@H](CCCC)C(=O)N[C@@H](CC(N)=O)C(=O)N[C@@H](CCCNC(=N)N)C(=O)N(C)[C@@H](CCCC)C(=O)N[C@@H](CCCCC)C(=O)N2CCC[C@H]2C(=O)N[C@@H](C(C)(C)C)C(=O)N[C@@H](CC(=O)O)C(=O)N[C@H](C(=O)NCC(N)=O)CSCC(=O)N[C@@H](Cc2ccccc2)C(=O)N[C@@H](Cc2c[nH]c3ccccc23)C(=O)N[C@@H](CC(=O)O)C1=O [Example 1396] ({CH2CO}-FWD[NHexGly]Y[Nle]NR[NMeNle][Ahp(2)]P[Tle]DCG-NH2; thioether N-14) | 26.8 nM
6 | CCCCCCN1CC(=O)N[C@@H](Cc2ccc(O)cc2)C(=O)N[C@@H](CCCC)C(=O)N[C@@H](CC(=O)O)C(=O)N[C@@H](CCCN)C(=O)N(C)[C@@H](CCCC)C(=O)N[C@@H](CCCCC)C(=O)N2CCC[C@H]2C(=O)N[C@@H](C(C)(C)C)C(=O)N[C@@H](CC(=O)O)C(=O)N[C@H](C(=O)N[C@@H](CC(N)=O)C(=O)O)CSCC(=O)N[C@@H](Cc2ccccc2)C(=O)N[C@@H](Cc2c[nH]c3ccccc23)C(=O)N[C@@H](CC(=O)O)C1=O [Example 1397] ({CH2CO}-FWD[NHexGly]Y[Nle]D[Orn][NMeNle][Ahp(2)]P[Tle]DCN-OH; thioether N-14) | 36 nM
7 | CCCCCCN1CC(=O)N[C@@H](Cc2ccc(O)cc2)C(=O)N[C@@H](CCCC)C(=O)N[C@@H](CC(N)=O)C(=O)N[C@@H](CCCNC(=N)N)C(=O)N(C)[C@@H](CCCC)C(=O)N[C@@H](CCCCC)C(=O)N2CCC[C@H]2C(=O)N[C@@H](C(C)(C)C)C(=O)N[C@@H](CC(=O)O)C(=O)N[C@H](C(=O)N[C@@H](CC(N)=O)C(=O)O)CSCC(=O)N[C@@H](Cc2ccccc2)C(=O)N[C@@H](Cc2c[nH]c3ccccc23)C(=O)N[C@@H](CC(=O)O)C1=O [Example 1398] ({CH2CO}-FWD[NHexGly]Y[Nle]NR[NMeNle][Ahp(2)]P[Tle]DCN-OH; thioether N-14) | 43.9 nM
8 | CCCCCCN1CC(=O)N[C@@H](Cc2ccc(O)cc2)C(=O)N[C@@H](CCCC)C(=O)N[C@@H](CC(=O)O)C(=O)N[C@@H](CCCNC(=N)N)C(=O)N(C)[C@@H](CCCC)C(=O)N[C@@H](CCCCC)C(=O)N2CCC[C@H]2C(=O)N[C@@H](C(C)(C)C)C(=O)N[C@@H](CO)C(=O)N[C@H](C(=O)N[C@@H](CC(N)=O)C(=O)O)CSCC(=O)N[C@@H](Cc2ccccc2)C(=O)N[C@@H](Cc2c[nH]c3ccccc23)C(=O)N[C@@H](CC(=O)O)C1=O [Example 1399] ({CH2CO}-FWD[NHexGly]Y[Nle]DR[NMeNle][Ahp(2)]P[Tle]SCN-OH; thioether N-14) | 27.3 nM
9 | CCCCCCN1CC(=O)N[C@@H](Cc2ccc(O)cc2)C(=O)N[C@@H](CCCC)C(=O)N[C@@H](CC(N)=O)C(=O)N[C@@H](CCCN)C(=O)N(C)[C@@H](CCCC)C(=O)N[C@@H](CCCCC)C(=O)N2CCC[C@H]2C(=O)N[C@@H](C(C)(C)C)C(=O)N[C@@H](CO)C(=O)N[C@H](C(=O)N[C@@H](CC(N)=O)C(=O)O)CSCC(=O)N[C@@H](Cc2ccccc2)C(=O)N[C@@H](Cc2c[nH]c3ccccc23)C(=O)N[C@@H](CC(=O)O)C1=O [Example 1400] ({CH2CO}-FWD[NHexGly]Y[Nle]N[Orn][NMeNle][Ahp(2)]P[Tle]SCN-OH; thioether N-14) | 14.1 nM
10 | CCCCCCN1CC(=O)N[C@@H](Cc2ccc(O)cc2)C(=O)N[C@@H](CCCC)C(=O)N[C@@H](CC(=O)O)C(=O)N[C@@H](CCCN)C(=O)N(C)[C@@H](CCCC)C(=O)N[C@@H](CCCCC)C(=O)N2CCC[C@H]2C(=O)N[C@@H](C(C)(C)C)C(=O)N[C@@H](CO)C(=O)N[C@H](C(=O)N[C@@H](CC(N)=O)C(=O)O)CSCC(=O)N[C@@H](Cc2ccccc2)C(=O)N[C@@H](Cc2c[nH]c3ccccc23)C(=O)N[C@@H](CC(=O)O)C1=O [Example 1401] ({CH2CO}-FWD[NHexGly]Y[Nle]D[Orn][NMeNle][Ahp(2)]P[Tle]SCN-OH; thioether N-14) | 20.2 nM
11 | CCCCCCN1CC(=O)N[C@@H](Cc2ccc(O)cc2)C(=O)N[C@@H](CCCC)C(=O)N[C@@H](CC(N)=O)C(=O)N[C@@H](CCCNC(=N)N)C(=O)N(C)[C@@H](CCCC)C(=O)N[C@@H](CCCCC)C(=O)N2CCC[C@H]2C(=O)N[C@@H](C(C)(C)C)C(=O)N[C@@H](CO)C(=O)N[C@H](C(=O)N[C@@H](CC(N)=O)C(=O)O)CSCC(=O)N[C@@H](Cc2ccccc2)C(=O)N[C@@H](Cc2c[nH]c3ccccc23)C(=O)N[C@@H](CC(=O)O)C1=O [Example 1402] ({CH2CO}-FWD[NHexGly]Y[Nle]NR[NMeNle][Ahp(2)]P[Tle]SCN-OH; thioether N-14) | 33.8 nM
